Data published in PubChem BioAssay (NCI).
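Five concentrations, 48 hours, 96-well plates. TGI denotes the concentration required for complete inhibition of growth.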

Assays:
Test in all cases: NCI anticancer screen, dose series, 48 h
[1] = test system: UO-31 renal
[2] = test system: SK-OV-3 ovarian
[3] = test system: HCC-2998 colon
[4] = test system: SK-MEL-28 melanoma
[5] = test system: LOX IMVI melanoma
[6] = test system: HS 578T breast
[7] = test system: OVCAR-5 ovarian
[8] = test system: HCT-116 colon
[9] = test system: ACHN renal
[10] = test system: SK-MEL-5 melanoma
[11] = test system: COLO 205 colon
[12] = test system: NCI-H460 lung
[13] = test system: SNB-75 CNS
[14] = test system: KM12 colon
[15] = test system: UACC-62 melanoma
[16] = test system: CAKI-1 renal
[17] = test system: DU-145 prostate
[18] = test system: U251 CNS
[19] = test system: MDA-MB-435
[20] = test system: OVCAR-4 ovarian
[21] = test system: HOP-62 NSCLC
[22] = test system: BT-549 breast
[23] = test system: SF-539 CNS
[24] = test system: NCI-H522 lung
[25] = test system: A549 NSCLC
[26] = test system: IGROV1 ovarian
[27] = test system: UACC-257 melanoma
[28] = test system: PC-3 prostate
[29] = test system: SN12C renal
[30] = test system: RPMI-8226 leukemia
[31] = test system: TK-10 renal
[32] = test system: CCRF-CEM leukemia
[33] = test system: NCI/ADR-RES ovarian
[34] = test system: OVCAR-8 ovarian
[35] = test system: 786-0 renal
[36] = test system: MOLT-4 leukemia
[37] = test system: T-47D breast
[38] = test system: NCI-H23 lung
[39] = test system: HL-60(TB) leukemia
[40] = test system: SF-295 CNS
[41] = test system: SF-268 CNS
[42] = test system: NCI-H226 lung
[43] = test system: A498 renal
[44] = test system: MCF7 breast
[45] = test system: RXF 393 renal
[46] = test system: HT29 colon
[47] = test system: MALME-3M melanoma
[48] = test system: OVCAR-3 ovarian
[49] = test system: SR leukemia
[50] = test system: SNB-19 CNS
[51] = test system: HOP-92 NSCLC
[52] = test system: HCT-15 colon
[53] = test system: MDA-N
[54] = test system: SW-620 colon
[55] = test system: K-562 leukemia
[56] = test system: SK-MEL-2 melanoma
[57] = test system: MDA-MB-231 breast
[58] = test system: EKVX NSCLC
[59] = test system: M14 melanoma

CC(=O)c1cccc2c1CC1(C2)Cc2ccc3c(c2C1=O)CCC3 (centres undefined) gave a TGI [1] greater than 100 µM, a TGI [2] greater than 100 µM and a TGI [3] of 67.4 µM. The TGI [4] was greater than 100 µM, the TGI [5] was greater than 100 µM and the TGI [6] was greater than 100 µM. It also gave a TGI [7] greater than 100 µM, a TGI [8] greater than 100 µM and a TGI [9] greater than 100 µM. For the same compound, the TGI [10] was 33.7 µM, the TGI [11] was 92.4 µM and the TGI [12] was greater than 100 µM. It also gave a TGI [13] greater than 100 µM, a TGI [14] greater than 100 µM and a TGI [15] greater than 100 µM. The TGI [16] was greater than 100 µM, the TGI [17] was greater than 100 µM and the TGI [18] was greater than 100 µM. For the same compound, the TGI [19] was greater than 100 µM, the TGI [20] was greater than 100 µM and the TGI [21] was greater than 100 µM. The TGI [22] was greater than 100 µM, the TGI [23] was greater than 100 µM and the TGI [24] was greater than 100 µM. It also gave a TGI [25] greater than 100 µM, a TGI [26] greater than 100 µM and a TGI [27] of 43.9 µM. The TGI [28] was greater than 100 µM, the TGI [29] was greater than 100 µM and the TGI [30] was greater than 100 µM. It also gave a TGI [31] of 77.6 µM, a TGI [32] greater than 100 µM and a TGI [33] of 57.5 µM. It also gave a TGI [34] greater than 100 µM, a TGI [35] greater than 100 µM and a TGI [36] greater than 100 µM. It also gave a TGI [37] greater than 100 µM, a TGI [38] greater than 100 µM and a TGI [39] of 21.3 µM. For the same compound, the TGI [40] was greater than 100 µM, the TGI [41] was greater than 100 µM and the TGI [42] was greater than 100 µM. For the same compound, the TGI [43] was greater than 100 µM, the TGI [44] was 76.4 µM and the TGI [45] was greater than 100 µM. It also gave a TGI [46] greater than 100 µM, a TGI [47] greater than 100 µM and a TGI [48] greater than 100 µM. It also gave a TGI [49] of 73.1 µM, a TGI [50] greater than 100 µM and a TGI [51] of 64.2 µM. For the same compound, the TGI [52] was greater than 100 µM, the TGI [53] was greater than 100 µM and the TGI [54] was greater than 100 µM. The TGI [55] was greater than 100 µM, the TGI [56] was greater than 100 µM and the TGI [57] was greater than 100 µM. It also gave a TGI [58] of 83.3 µM and a TGI [59] greater than 100 µM.
